# Experimental data taken from patent publication US7297353B2, “Use of anemonin for treating aseptic inflammations” (priority 2000, dated 2007).
# “Also recorded” adds a separate entry of the source.
# Columns and labels:
# injured skin = assay: Effect of anemonin on the injured skin in mice (visual irritation score); type: in vivo, ICR mice; parameters: Irritation Score: scale not given here
# Protocol: ICR mice were utilized for the studies. The dorsal hair of mice was cut and injured 24 hour before experiment. 25% ethanol (0.5 ml) and the liniment solution of anemonin (0.05, 0.5, 5 mg/ml, 0.5 ml) were coated 4 h a day for 7 days on the area of hairless which was 2×2 cm^2 per mice. The skin irritation was evaluated by visual scoring (Table C-3 and C-4) everyday. The mice were continuously observed for 7 days after stopping applying. […] The injured skin of application 0.5 mg/ml anemonin also healed up within 7 days.
# [1] = tested on: lymphocytes from the whole spleen of ICR mice; assay: Effect on survival rate of lymphocytes (MTT); type: cell-based; conditions: for MTT Average of OD values: 48-hour culture
# Protocol: 5.1.1. Mice were sacrificed by removing spondyle, spleen was cut off and then ground to obtain single cell suspension. After erythrocytes were got rid of the remained cells were diluted to […] with RPMI-1640 culture solution containing 10% fetal bovine serum. In addition, all these performances must be sterile.
# 5.1.2. 200 μl solution in total volume (including 100 μl the cell suspension, 50 μl sample and 50 μl culture solution containing 10% fetal bovine serum) was dispensed on 96-well plate. 100 μl the cell suspension and 100 μl culture solution (200 μl in total volume) were added as negative control.
# 5.1.3. The cell was cultured at 37° C. and under 5% CO2 in incubator for 48 hours, and added MTT to the plate at […] 6 to 7 hours before the end of culture.
# 5.1.4. 100 μl of supernatant was sucked out when the culture was ended, and then lytic solution was added at 100 μl/well. The plates were kept in incubator for 6 to 7 hours. The survival rate was calculated according to the OD value (at 570 nm) measured by microplate reader.
# Effect of different concentrations of Anemonin on survival rate of lymphocytes were determined, said lymphocytes were from the whole spleen of ICR mice after 48-hour culture.
# [2] = tested on: murine spleens cells stimulated with ConA; assay: T-cell proliferation, spleen cells stimulated with ConA ([3H]-thymidine uptake); type: cell-based, ICR mice; conditions: for [^3H]-TDRincorparation(CPM × 10^−3): ConA 5 μg/ml, 48 hrs
# Protocol: Fresh spleen cells were obtained from ICR mice (male, 7-9 weeks old), 5×10^5 of spleen cells were cultured in 96-well flat plates with […] of RPMI 1640 media containing 10% FBS, 100 U/ml penicillin and 100 μg/ml streptomyin in a humidified, 37° C., 5% CO2 incubator for 48 hrs. The cultures were either unstimulated, or were stimulated with 5 μg/ml of ConA or 10 μg/ml of LPS to induce T cells or B cells proliferative responses respectively. The compounds were added in cultures with indicated concentrations to test their bioactivities. Profileration was assessed in terms of uptake of [^3H]-thymidine during 6-12 hours pulsing with 20 kBq [^3H]-thymidine/well, then the cells were harvested by a Basic 96 harvester, and counted in a 1540 MicroBeta Trilux (PerkinElmer Life Sciences).
# [3] = 0.05 mg/ml on injured skin, Day 1, Treatment
# [4] = 0.05 mg/ml on injured skin, Day 2, Treatment
# [5] = 0.05 mg/ml on injured skin, Day 3, Treatment
# [6] = 0.05 mg/ml on injured skin, Day 4, Treatment
# [7] = 0.05 mg/ml on injured skin, Day 5, Treatment
# [8] = 0.05 mg/ml on injured skin, Day 6, Treatment
# [9] = 0.05 mg/ml on injured skin, Day 7, Treatment
# [10] = 0.05 mg/ml on injured skin, Day 8, Observation
# [11] = 0.05 mg/ml on injured skin, Day 9, Observation
# [12] = 0.05 mg/ml on injured skin, Day 10, Observation
# [13] = 0.05 mg/ml on injured skin, Day 11, Observation
# [14] = 0.05 mg/ml on injured skin, Day 12, Observation
# [15] = 0.05 mg/ml on injured skin, Day 13, Observation
# [16] = 0.05 mg/ml on injured skin, Day 14, Observation
# [17] = 0.5 mg/ml on injured skin, Day 1, Treatment
# [18] = 0.5 mg/ml on injured skin, Day 2, Treatment
# [19] = 0.5 mg/ml on injured skin, Day 3, Treatment
# [20] = 0.5 mg/ml on injured skin, Day 4, Treatment
# [21] = 0.5 mg/ml on injured skin, Day 5, Treatment
# [22] = 0.5 mg/ml on injured skin, Day 6, Treatment
# [23] = 0.5 mg/ml on injured skin, Day 7, Treatment
# [24] = 0.5 mg/ml on injured skin, Day 8, Observation
# [25] = 0.5 mg/ml on injured skin, Day 9, Observation
# [26] = 0.5 mg/ml on injured skin, Day 10, Observation
# [27] = 0.5 mg/ml on injured skin, Day 11, Observation
# [28] = 0.5 mg/ml on injured skin, Day 12, Observation
# [29] = 0.5 mg/ml on injured skin, Day 13, Observation
# [30] = 0.5 mg/ml on injured skin, Day 14, Observation
# [31] = 5 mg/ml on injured skin, Day 2, Treatment
# [32] = 5 mg/ml on injured skin, Day 3, Treatment
# [33] = 5 mg/ml on injured skin, Day 4, Treatment
# [34] = 5 mg/ml on injured skin, Day 5, Treatment
# [35] = 5 mg/ml on injured skin, Day 6, Treatment
# [36] = 5 mg/ml on injured skin, Day 7, Treatment
# [37] = 5 mg/ml on injured skin, Day 8, Observation
# [38] = 5 mg/ml on injured skin, Day 9, Observation
# [39] = 5 mg/ml on injured skin, Day 10, Observation
# [40] = 5 mg/ml on injured skin, Day 11, Observation
# [41] = 5 mg/ml on injured skin, Day 12, Observation
# [42] = 5 mg/ml on injured skin, Day 13, Observation
# [43] = 5 mg/ml on injured skin, Day 14, Observation
compound,measurement,setting,value
"O=C1C=CC2(CCC23C=CC(=O)O3)O1 (stereo not drawn) [Anemonin, anemonin]",Irritation Grade,injured skin; [3],No (No irritation <0.5)
same,Irritation Score,injured skin; [3],0
same,Irritation Grade,injured skin; [4],No (No irritation <0.5)
same,Irritation Score,injured skin; [4],0
same,Irritation Grade,injured skin; [5],No (No irritation <0.5)
same,Irritation Score,injured skin; [5],0
same,Irritation Grade,injured skin; [6],No (No irritation <0.5)
same,Irritation Score,injured skin; [6],0
same,Irritation Grade,injured skin; [7],No (No irritation <0.5)
same,Irritation Score,injured skin; [7],0
same,Irritation Grade,injured skin; [8],No (No irritation <0.5)
same,Irritation Score,injured skin; [8],0
same,Irritation Grade,injured skin; [9],No (No irritation <0.5)
same,Irritation Score,injured skin; [9],0
same,Irritation Grade,injured skin; [10],No (No irritation <0.5)
same,Irritation Score,injured skin; [10],0
same,Irritation Grade,injured skin; [11],No (No irritation <0.5)
same,Irritation Score,injured skin; [11],0
same,Irritation Grade,injured skin; [12],No (No irritation <0.5)
same,Irritation Score,injured skin; [12],0
same,Irritation Grade,injured skin; [13],No (No irritation <0.5)
same,Irritation Score,injured skin; [13],0
same,Irritation Grade,injured skin; [14],No (No irritation <0.5)
same,Irritation Score,injured skin; [14],0
same,Irritation Grade,injured skin; [15],No (No irritation <0.5)
same,Irritation Score,injured skin; [15],0
same,Irritation Grade,injured skin; [16],No (No irritation <0.5)
same,Irritation Score,injured skin; [16],0
same,Irritation Grade,injured skin; [17],Mild (Mide irritation <2.09)
same,Irritation Score,injured skin; [17],1
same,Irritation Grade,injured skin; [18],No (No irritation <0.5)
same,Irritation Score,injured skin; [18],0.25
same,Irritation Grade,injured skin; [19],No (No irritation <0.5)
same,Irritation Score,injured skin; [19],0.25
same,Irritation Grade,injured skin; [20],No (No irritation <0.5)
same,Irritation Score,injured skin; [20],0.25
same,Irritation Grade,injured skin; [21],No (No irritation <0.5)
same,Irritation Score,injured skin; [21],0.125
same,Irritation Grade,injured skin; [22],No (No irritation <0.5)
same,Irritation Score,injured skin; [22],0
same,Irritation Grade,injured skin; [23],No (No irritation <0.5)
same,Irritation Score,injured skin; [23],0
same,Irritation Grade,injured skin; [24],No (No irritation <0.5)
same,Irritation Score,injured skin; [24],0
same,Irritation Grade,injured skin; [25],No (No irritation <0.5)
same,Irritation Score,injured skin; [25],0
same,Irritation Grade,injured skin; [26],No (No irritation <0.5)
same,Irritation Score,injured skin; [26],0
same,Irritation Grade,injured skin; [27],No (No irritation <0.5)
same,Irritation Score,injured skin; [27],0
same,Irritation Grade,injured skin; [28],No (No irritation <0.5)
same,Irritation Score,injured skin; [28],0
same,Irritation Grade,injured skin; [29],No (No irritation <0.5)
same,Irritation Score,injured skin; [29],0
same,Irritation Grade,injured skin; [30],No (No irritation <0.5)
same,Irritation Score,injured skin; [30],0
same,Irritation Grade,"injured skin; 5 mg/ml on injured skin, Day 1, Treatment",Moderate (Moderate irritation <6.0)
same,Irritation Grade,injured skin; [31],Moderate (Moderate irritation <6.0)
same,Irritation Score,injured skin; [31],3.4
same,Irritation Grade,injured skin; [32],Moderate (Moderate irritation <6.0)
same,Irritation Score,injured skin; [32],3.3
same,Irritation Grade,injured skin; [33],Moderate (Moderate irritation <6.0)
same,Irritation Score,injured skin; [33],3.3
same,Irritation Grade,injured skin; [34],Moderate (Moderate irritation <6.0)
same,Irritation Score,injured skin; [34],3.3
same,Irritation Grade,injured skin; [35],Moderate (Moderate irritation <6.0)
same,Irritation Score,injured skin; [35],4
same,Irritation Grade,injured skin; [36],Moderate (Moderate irritation <6.0)
same,Irritation Score,injured skin; [36],4
same,Irritation Grade,injured skin; [37],Moderate (Moderate irritation <6.0)
same,Irritation Score,injured skin; [37],4
same,Irritation Grade,injured skin; [38],Moderate (Moderate irritation <6.0)
same,Irritation Score,injured skin; [38],4
same,Irritation Grade,injured skin; [39],Moderate (Moderate irritation <6.0)
same,Irritation Score,injured skin; [39],3.5
same,Irritation Grade,injured skin; [40],Moderate (Moderate irritation <6.0)
same,Irritation Score,injured skin; [40],3
same,Irritation Grade,injured skin; [41],Moderate (Moderate irritation <6.0)
same,Irritation Score,injured skin; [41],2.5
same,Irritation Grade,injured skin; [42],Mild (Mide irritation <2.09)
same,Irritation Score,injured skin; [42],2
same,Irritation Grade,injured skin; [43],Mild (Mide irritation <2.09)
same,Irritation Score,injured skin; [43],2
same,Irritation Score,"injured skin; 5 mg/ml, 0.5 ml, 4 h a day for 7 days on injured skin, Day 1, Treatment",3.1
same,irritation on injured skin,injured skin; application of 0.05 mg/ml,did not cause any irritation
same,irritation on injured skin,"injured skin; application of 0.5 mg/ml, after 24 h application, then began to alleviate",slight erythema
same,irritation on injured skin,injured skin; application of 5 mg/ml,mild to moderate erythema
same,MTT Average of OD values,"[1]; 0.001 μg/ml, Table B-2",0.087
same,Decrease of survival rate of lymphocytes Yes/No,"[1]; 0.001 μg/ml, Table B-2",Yes
same,MTT Average of OD values,"[1]; 0.01 μg/ml, Table B-2",0.068
same,Decrease of survival rate of lymphocytes Yes/No,"[1]; 0.01 μg/ml, Table B-2",Yes
same,MTT Average of OD values,"[1]; 0.1 μg/ml, Table B-2",0.061
same,Decrease of survival rate of lymphocytes Yes/No,"[1]; 0.1 μg/ml, Table B-2",Yes
same,MTT Average of OD values,"[1]; 1 μg/ml, Table B-1",0.052
same,MTT Average of OD values,"[1]; 1 μg/ml, Table B-2",0.002
same,Decrease of survival rate of lymphocytes Yes/No,"[1]; 1 μg/ml, Table B-1",Yes
same,Decrease of survival rate of lymphocytes Yes/No,"[1]; 1 μg/ml, Table B-2",Yes
same,MTT Average of OD values,"[1]; 10 μg/ml, Table B-1",0.002
same,MTT Average of OD values,"[1]; 10 μg/ml, Table B-2",0.008
same,Decrease of survival rate of lymphocytes Yes/No,"[1]; 10 μg/ml, Table B-1",Yes
same,Decrease of survival rate of lymphocytes Yes/No,"[1]; 10 μg/ml, Table B-2",Yes
same,MTT Average of OD values,"[1]; 100 μg/ml, Table B-1",0.163
same,MTT Average of OD values,"[1]; 100 μg/ml, Table B-2",0.145
same,inhibition in survival rate of the lymphocytes,[1]; final concentration range from 0.001 μg/ml to 10 μg/ml,obvious inhibition; also recorded: obvious effect
same,[^3H]-TDRincorparation(CPM × 10^−3),[2]; 0.001 μg/ml,30.1 ± 1.31 CPM × 10^−3
same,[^3H]-TDRincorparation(CPM × 10^−3),[2]; 0.01 μg/ml,33.2 ± 2.56 CPM × 10^−3
same,[^3H]-TDRincorparation(CPM × 10^−3),[2]; 0.1 μg/ml,30.9 ± 0.78 CPM × 10^−3
same,[^3H]-TDRincorparation(CPM × 10^−3),[2]; 1 μg/ml,21.7 ± 0.53 CPM × 10^−3
same,[^3H]-TDRincorparation(CPM × 10^−3),[2]; 10 μg/ml,0.03 ± 0.01 CPM × 10^−3
same,[^3H]-TDRincorparation(CPM × 10^−3),[2]; 100 μg/ml,0.02 ± 0.01 CPM × 10^−3
same,T-cell proliferation,[2]; 1-100 μg/ml,significantly inhibited
